Five molecules from US20260224532A1, “ESTROGEN RECEPTOR BETA LIGANDS FOR THE PREVENTION AND TREATMENT OF MULTIPLE SCLEROSIS (MS) AND OTHER DEMYELINATING, INFLAMMATORY AND NEURODEGENERATIVE DISEASES” (The Board of Trustees of the University of Illinois, priority 2023, published 2026) can be followed below.

Structures are written as SMILES. Entries after “also recorded” stand apart in the source; their conditions may differ. Read-outs that look alike come from different tables or passages of the source.

Series [1] has as its target T1, purified, full length human ERα (Homo sapiens, UniProt P03372).
T1 construct: purified, full length human ERα and ERβ
T1 sequence (P03372 1-595): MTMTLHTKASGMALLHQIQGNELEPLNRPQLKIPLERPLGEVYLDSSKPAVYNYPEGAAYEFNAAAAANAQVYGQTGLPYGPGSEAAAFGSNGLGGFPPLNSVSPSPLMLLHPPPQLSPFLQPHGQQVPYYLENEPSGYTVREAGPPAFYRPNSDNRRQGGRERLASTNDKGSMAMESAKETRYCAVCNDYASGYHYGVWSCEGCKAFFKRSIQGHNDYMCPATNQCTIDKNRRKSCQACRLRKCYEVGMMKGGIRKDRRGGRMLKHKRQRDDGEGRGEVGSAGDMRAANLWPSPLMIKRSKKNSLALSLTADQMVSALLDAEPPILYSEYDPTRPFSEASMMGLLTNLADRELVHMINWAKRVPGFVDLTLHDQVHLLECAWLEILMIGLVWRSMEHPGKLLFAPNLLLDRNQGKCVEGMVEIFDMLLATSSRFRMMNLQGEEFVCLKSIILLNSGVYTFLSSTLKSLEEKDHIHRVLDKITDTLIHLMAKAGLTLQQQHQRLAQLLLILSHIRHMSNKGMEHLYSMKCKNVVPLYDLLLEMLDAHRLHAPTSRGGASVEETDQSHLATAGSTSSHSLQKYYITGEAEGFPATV
Briefly: Relative binding affinity (RBA) radiometric competitive binding assay, ERα. Conditions: relative binding affinity, E2 (estradiol) is 100%; tritiated estradiol tracer.

Series [2] concerns the target T2, purified, full length human ERβ (Homo sapiens, UniProt Q92731).
T2 construct: purified, full length human ERα and ERβ
The experiment in a line: Relative binding affinity (RBA) radiometric competitive binding assay, ERβ. The settings on record: for β/α (ERβ/ERα selectivity): ratio of RBA ERβ to RBA ERα; for RBA ERβ: relative binding affinity, E2 (estradiol) is 100%, tritiated estradiol tracer.

A further series relates to Primary OPCs. The experiment in a line: Primary OPC culture: MBP+ OL differentiation and total cell count (DAPI). It is filed as cell-based, mouse. Conditions: for number of MBP+ OLs with increased percentage of branched OLs, compared to vehicle-treated cells: 10 nM; for MBP expression / number of MBP+ OLs, compared to vehicle-treated cells: 1 nM. As to the method:
Primary OPC Cultures: Primary OPCs, isolated from postnatal day P1 C57BL/6 male and female mouse cortices as described previously, are treated with 10 nM ligands in differentiating medium for […] (Tiwari-Woodruff et al., 2001; Tiwari-Woodruff et al., 2006). Primary OPC are cultured into 8-well chamber slides (three wells per condition, 2.5×10^5 cells/well) for three days to attach and five days in differentiating media (consisting of DMEM-F12 with triiodothyronine- and thyroxine-containing Sato as well as penicillin, streptomycin, insulin, N-acetyl-L-cysteine, forskolin, ciliary neurotrophic factor, neurotrophin-3, and platelet-derived growth factor […] (Tiwari-Woodruff et al., 2001)). A positive control (IndC1), a negative control (Vehicle consisting of the media+EtOH mixture used to dissolve IndCl), and a normal control (differentiating media alone) are used for comparison. At the end of the treatment period, cells are fixed, stained by immunocytochemistry (primary antibody polyclonal chicken myelin basic protein (MBP, Millipore AB9348), and co-stained with nuclear stain-DAPI), and imaged with an Olympus BX61 confocal microscope (Olympus America Inc., Center Valley, PA) at 10× magnification (3 images per well). Cells are counted using the ImageJ multipoint tool, and counts are then divided by the image area (mm^2). Average cell density for each condition is then divided by the normal condition cell density. Analysis of OL differentiation consists of counting the number of MBP+ cells and process extensions that are longer than the respective cell-body diameter and tracking the number of highly branched MBP+ cells (with three or more processes) (Monnerie et al., 2017). Statistics are performed using GraphPad Prism 6 Software (La Jolla, CA). One-way ANOVA with Tukey's posthoc test for multiple comparisons is used to generate p-values, and data are presented as mean±SEM (with α≤0.05).
FIG. 1A-1D show the effects of treatment with the 7-substituted indazole compounds on the expression of myelin basic protein in OLs (MBP^+-OLs, top two panels) as an indication of murine oligodendrocyte precursor cell (OPC) differentiation, as well as the count of the total cells as an indication of cell proliferation/survival (DAPI nucleus stain, bottom two panels). The cells were treated with the listed compounds at 10 nM (FIG. 1A, 1B) and at 1 nM (FIG. 1C, 1D).

Series [3] relates to Cuprizone-Induced Demyelinated Mouse Model. Briefly: Myelin recovery in the cuprizone-induced demyelinated mouse model (MOG IHC, Corpus Callosum). The format is in vivo, C57BL/6 female mice. The method, then:
The Cuprizone assay of demyelination-remyelination was conducted by the methods described previously (Moore et al. 2013; Crawford et al, 2009a,b). A group of animals was on normal diet (N groups). The remainder of the mice were divided into groups of 5 and all of these groups of mice were fed cuprizone diet at (0.2% cuprizone mixed in chow). After 6 weeks on cuprizone diet-induced demyelination, a group of 5 mice were perfused (DM group). The other groups of mice were switched to normal diet for 1.5 weeks to initiate remyelination and were treated with either (i) Vehicle (SC+V) or (ii) test compound at a dose of 5 mg/kg. […] After 1.5 weeks of normal diet-induced remyelination, the mice were perfused. Brains were collected, cryoprotected, embedded, cut, and IHC for myelin oligodendrocyte glycoproteins (MOG) was performed. Cuprizone study results after 1.5-weeks treatment with the designated 7-substituted compounds via SC administration following 6 weeks cuprizone treatment of (C57BL/6) female mice are shown in FIG. 5. The height of each bar graph represents level of myelination assessed by the expression of MOG in the white matter tracks of the Corpus Callosum area quantified by immunohistochemical analysis (IHC) after staining with a MOG antibody. N: Normal diet, DM: Demyelinated status after 6 weeks cuprizone treatment, SC-Veh: Spontaneous remyelination after injection with matrix in saline solution only (without compound; recovery is only about 40%). (Mice: ~2 months age, SC: Subcutaneous injection, n=5). Cuprizone study results for the 3-weeks treatment with the 6-substituted compound 17 via SC administration following the 6 weeks of 0.2% cuprizone treatment of C57BL/6 female mice are shown in FIG. 6. The height of each bar graph represents level of myelination assessed by the expression of MOG in the white matter tracks of the Corpus Callosum area quantified by immunohistochemical analysis (IHC) after staining with a MOG antibody. N: Normal diet, DM: Demyelinated status after 6 weeks cuprizone treatment, SC-Veh: Spontaneous remyelination after injection with matrix in saline solution only (without compound; recovery is only about 40%). (Mice: ~2 months age, SC: Subcutaneous injection, n=5~6). […] (Mice: ~2 months age, s.c.: Subcutaneous administration, n=5).

In another series the test system is uterus. Briefly: Uterotrophic effect (uterine weight) in non-ovariectomized mice of the cuprizone study. The format is in vivo. Conditions: daily SC 5 mg/kg. The source says:
The uterus was taken from the mice treated with compounds 5 and 7 from the recovery assessment study using the Cuprizone-induced demyelination model. Uterine weight for each compound is represented by % uterus/body weight.
Estrogens increase uterine weight by acting primarily through ERα (Hewitt and Korach, 2003).

Series [4] can be described thus: 2-hour single-point pharmacokinetic (PK) study, blood and brain. It is filed as in vivo, C57BL/6 female mice. The settings on record: for Kp at 2 h: female, C57BL/6, mouse, brain / blood. The method, then: The 2-Hour single-point pharmacokinetics for IndCl-7-Cl (compound 7), IndCl-7-Br-3′-OH (compound 12), and IndCl-7-Cl-3′-F (compound 14) was examined in (two and half month old C57BL/6 female) mice after single subcutaneous (SC) injection or oral gavage (PO) in 0.1 mL at a dose 5 mg/kg for SC and 25 mg/kg for PO administration. The vehicle for SC administration was 0.1 mL 10% ethanol and 90% Miglyol 812N or 10% DMSO saline and for PO administration, 0.1 mL 2-hydroxypropyl-beta-cyclodextrin [HPCD]/40% aqueous solution MW ~1540. Two hours after injection blood and brain were collected and processed for quantification of the administered compound at the University of Illinois Metabolomics Core Facility by liquid chromatography-mass spectrometry (LC-MS/MS). The bar graphs indicate the analyzed concentration in the blood and the brain in nM units for each sample and each administered method. The brain uptake ratio over the blood of compound 7 (IndCl-7-C1) in the PO and SC pharmacokinetic study is as high as ~7 and ~6, respectively.
For subcutaneous (SC) injection, the compound made up as a homogeneous suspension in 10% ethanol and 90% Miglyol 812N (vehicle; Sasol) and a 0.1 mL dose was administered by SC injection at a dose of 5 mg/kg body weight. For PO administration, the compound was dissolved into 40% (2-Hydroxypropyl)-β-cyclodextrin (Mw~ 1540)(HP-CD) and administered via oral gavage in a volume of 0.1 mL at a dose of 25 mg/kg body weight.

Setting [5] is: SC 5 mg/kg, 1.5-weeks treatment after 6 weeks cuprizone.

T2 sequence (Q92731 whole entry): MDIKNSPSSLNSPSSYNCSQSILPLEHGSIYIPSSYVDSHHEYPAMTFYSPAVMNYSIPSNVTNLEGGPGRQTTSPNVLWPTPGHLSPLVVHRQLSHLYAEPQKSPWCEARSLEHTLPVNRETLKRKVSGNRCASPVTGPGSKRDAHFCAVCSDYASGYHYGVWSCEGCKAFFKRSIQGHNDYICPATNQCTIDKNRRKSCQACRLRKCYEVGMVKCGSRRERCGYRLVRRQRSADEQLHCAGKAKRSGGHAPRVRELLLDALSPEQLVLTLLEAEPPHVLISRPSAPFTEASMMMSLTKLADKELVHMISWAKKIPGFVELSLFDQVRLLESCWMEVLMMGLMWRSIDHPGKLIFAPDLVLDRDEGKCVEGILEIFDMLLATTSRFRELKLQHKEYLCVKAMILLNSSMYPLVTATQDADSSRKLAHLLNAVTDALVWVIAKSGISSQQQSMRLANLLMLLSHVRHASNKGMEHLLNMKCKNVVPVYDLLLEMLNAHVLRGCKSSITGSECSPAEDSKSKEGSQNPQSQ

Take `Oc1ccc(-n2nc3c(Br)cc(O)cc3c2I)cc1` [Compound 5, 7-bromo-2-(4-hydroxyphenyl)-3-iodo-2H-indazol-5-ol]: in series [1], the “RBA ERα” value stood at 6.95%. For the same molecule, the “β/α (ERβ/ERα selectivity)” value in series [2] is reported as 23. Moreover, the “number of MBP+ OLs with increased percentage of branched OLs, compared to vehicle-treated cells” value in the series with Primary OPCs is listed as “significant increase”. For the same molecule, in series [3] (setting [5]), the “remyelination (MOG expression in Corpus Callosum)” value (“remyelination” below) was “somewhat less remyelination”. Besides, the “uterotrophic effect, uterine weight (% uterus/body weight) vs vehicle” value in the series with uterus was “did not show uterotrophic effects significantly different from mice treated with vehicle alone; also recorded: did not stimulate the uterus weight significantly”.

Regarding `Oc1ccc(-n2nc3c(Cl)cc(O)cc3c2Cl)cc1` [Compound 7, 3,7-dichloro-2-(4-hydroxyphenyl)-2H-indazol-5-ol], the “RBA ERα” value in series [1] was determined as 6.9 ± 2.4%. In addition, in series [2], the “β/α (ERβ/ERα selectivity)” value turned out to be 45. Moreover, the “MBP expression / number of MBP+ OLs, compared to vehicle-treated cells” value with Primary OPCs is given as “particularly significant increase”. For the same molecule, the “number of MBP+ OLs with increased percentage of branched OLs, compared to vehicle-treated cells” value in the series with Primary OPCs is “significant increase”. In series [4] (PO 25 mg/kg vs SC 5 mg/kg, 2 hours), the “concentration in the brain after PO administration compared with SC injection” value is “markedly higher”. In addition, the “brain uptake (in words)” value is “selective high brain uptake” in series [4] (PO 25 mg/kg, 2 hours) and “selective high brain uptake” in series [4] (SC 5 mg/kg, 2 hours). Also, the Kp at 2 h in series [4] (PO 25 mg/kg, 2 hours after dosing, read-out: brain uptake ratio over the blood) is around 7; in series [4] (SC 5 mg/kg, 2 hours after dosing, read-out: brain uptake ratio over the blood), around 6. Besides, the “remyelination” value in series [3] (setting [5]) is “accelerates remyelination, reaching levels at or above the normal myelin level”. Besides, in the series on uterus, the “uterotrophic effect, uterine weight (% uterus/body weight) vs vehicle” value is “did not show uterotrophic effects significantly different from mice treated with vehicle alone; also recorded: did not stimulate the uterus weight significantly”.

For the molecule `Oc1cccc(-n2nc3c(Br)cc(O)cc3c2Cl)c1` [Compound 12, 7-Bromo-3-chloro-2-(3-hydroxyphenyl)-2H-indazol-5-ol], the “RBA ERα” value in series [1] turned out to be 0.16%. In series [2], the “β/α (ERβ/ERα selectivity)” value is on record as 246 and the “RBA ERβ” value was 39.4%. The “selectivity of binding to ERβ vs ERα” value in series [2] (text statement of the β/α ratio) was 246 fold. Also, the “remyelination” value in series [3] (setting [5]) is given as “does not accelerate remyelination”.

Regarding `Oc1cc(Cl)c2nn(-c3ccc(O)c(F)c3)c(Cl)c2c1` [Compound 14, 3,7-dichloro-2-(3-fluoro-4-hydroxyphenyl)-2H-indazol-5-ol], the “RBA ERα” value in series [1] is reported as 0.86%. In series [2], the “β/α (ERβ/ERα selectivity)” value was 38.3 and the “RBA ERβ” value was found to be 32.96%. In the series with Primary OPCs, the “number of MBP+ OLs with increased percentage of branched OLs, compared to vehicle-treated cells” value is on record as “significant increase”. In addition, the “remyelination” value in series [3] (setting [5]) is “somewhat less remyelination”.

On to `Oc1ccc(-n2nc3cc(F)c(O)cc3c2Cl)cc1` [Compound 17, 3-chloro-6-fluoro-2-(4-hydroxyphenyl)-2H-indazol-5-ol], for which the “RBA ERα” value in series [1] amounted to 0.968%. Further, in series [2], the “β/α (ERβ/ERα selectivity)” value was 48.7 and the “RBA ERβ” value came out at 47.11%. Moreover, in the series with Primary OPCs, the “MBP expression / number of MBP+ OLs, compared to vehicle-treated cells” value is “good MBP expression; also recorded: significant increase” and the “number of MBP+ OLs with increased percentage of branched OLs, compared to vehicle-treated cells” value is “significant increase”. Further, in series [4] (PO 25 mg/kg, 2 hours, n=3, read-out: concentration in brain relative to concentration in blood), the Kp at 2 h was found to be 3. Moreover, the “remyelination” value in series [3] (SC, 3-weeks treatment after 6 weeks of 0.2% cuprizone) is recorded as “recover above the normal level; also recorded: accelerate remyelination to reach a level at or above the normal level”.
